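96-well plates; 48 h exposure; 5 concentrations. Endpoints by linear interpolation between flanking doses. Not reached: highest tested concentration assigned. The concentration for 50% growth inhibition is given as GI50. TGI marks complete inhibition of growth.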
Legend:
Test in all cases: inhibition of tumour cell growth, NCI panel, 48 h
A549 NSCLC = test system: A549 NSCLC
HS 578T breast = test system: HS 578T breast
HT29 colon = test system: HT29 colon
NCI-H226 lung = test system: NCI-H226 lung
NCI-H460 lung = test system: NCI-H460 lung
NCI-H522 lung = test system: NCI-H522 lung
OVCAR-8 ovarian = test system: OVCAR-8 ovarian
SR leukemia = test system: SR leukemia
UACC-257 melanoma = test system: UACC-257 melanoma
UACC-62 melanoma = test system: UACC-62 melanoma

Compound | GI50 (A549 NSCLC) [µM] | TGI (A549 NSCLC) [µM] | GI50 (HS 578T breast) [µM] | TGI (HS 578T breast) [µM] | GI50 (HT29 colon) [µM] | TGI (HT29 colon) [µM] | GI50 (NCI-H226 lung) [µM] | TGI (NCI-H226 lung) [µM] | GI50 (NCI-H460 lung) [µM] | TGI (NCI-H460 lung) [µM] | GI50 (NCI-H522 lung) [µM] | TGI (NCI-H522 lung) [µM] | GI50 (OVCAR-8 ovarian) [µM] | TGI (OVCAR-8 ovarian) [µM] | GI50 (SR leukemia) [µM] | TGI (SR leukemia) [µM] | GI50 (UACC-257 melanoma) [µM] | TGI (UACC-257 melanoma) [µM] | GI50 (UACC-62 melanoma) [µM] | TGI (UACC-62 melanoma) [µM]
COc1ccc2c(c1)C(C)Cc1c(ncnc1-n1c(C)nc3ccccc31)N2C (stereo not given) | 4.82 | 24.7 | 4.12 | 25.3 | 2.81 | 8.94 | 11.5 | 36.1 | 3.85 | 14.4 | 1.96 | 5.38 | 4.83 | 40.1 | 0.345 | 5.54 | 14.8 | 33.5 | 4.83 | 22.3
COc1cc2ncn(-c3cc(OCCc4ccccc4)c(C(N)=O)s3)c2cc1OC | > 25 | > 25 | > 16.1 | > 25 | 13.6 | > 25 | > 25 | > 25 | > 25 | > 25 | > 18.1 | > 25 | > 25 | > 25 | 13.6 | > 25 | > 25 | > 25 | > 25 | > 25
COc1ccc(-c2c[nH]c(=S)n2-c2ccc(OC)cc2)cc1 | > 50 | > 50 | > 50 | > 50 | > 50 | > 50 | > 50 | > 50 | > 50 | > 50 | > 50 | > 50 | > 50 | > 50 | > 50 | > 50 | > 50 | > 50 | > 50 | > 50
O=C(Nc1ccc(Br)cc1)c1ccc(Cl)c(Cl)c1 | 3.76 | > 100 | 3.8 | > 100 | 3.42 | > 100 | 2.86 | > 100 | 3.16 | > 30.5 | 2.75 | 16.2 | 4.2 | > 100 | 4.35 | > 100 | 3.69 | > 89.2 | 2.92 | > 100
CCC(C)(C)c1ccc(OCCCCCCN2CCNCC2)cc1 | 3.77 | 13.7 | 1.97 | 5.17 | 1.86 | 4.72 | 3.87 | 18 | 1.94 | 3.87 | 2.23 | 5.67 | 2.45 | 5.3 | 1.25 | 3.71 | 2.11 | 4.43 | 1.76 | 3.52

Source: PubChem BioAssay (NCI)
